# Data published in US20170190671A1, “BIS(ARYL)CATECHOL DERIVATIVES AS HERBICIDES” (E I DU PONT DE NEMOURS AND COMPANY, priority 2014, published 2017).
# Experiments:
# [1] = tested on: pigweed (Amaranthus retroflexus); assay: Test A preemergence; assay type: in vivo; settings: Amaranthus retroflexus, pre-emergence, 240 h, 0 to 100 scale (0 no effect, 100 complete control), read-out: Pigweed plant response rating
# How it was run: (§1)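 Pre- and postemergence greenhouse screen. Soil: loam + sand. Spray carrier: solvent mixture, non-phytotoxic, with surfactant. Post timing at 1–2 leaves, height 2–10 cm. Readout: visual injury on a 0–100 scale roughly 10 days after application, untreated plants as reference.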
# [2] = tested on: ragweed (common ragweed, Ambrosia elatior); assay: Test A preemergence; assay type: in vivo; settings: Ambrosia artemisiifolia, pre-emergence, 240 h, 0 to 100 scale (0 no effect, 100 complete control), read-out: Ragweed plant response rating
# How it was run: as §1
# [3] = tested on: Italian ryegrass (Lolium multiflorum); assay: Test A preemergence; assay type: in vivo; settings: Lolium multiflorum, pre-emergence, 240 h, 0 to 100 scale (0 no effect, 100 complete control), read-out: Ryegrass, Italian plant response rating
# How it was run: as §1
# [4] = tested on: barnyardgrass (Echinochloa crus-galli); assay: Test A preemergence; assay type: in vivo; settings: Echinochloa crus-galli, pre-emergence, 240 h
# How it was run: as §1
# kochia (Kochia scoparia) [5] = assay: Test A preemergence; assay type: in vivo; settings: Bassia scoparia, pre-emergence, 240 h, 0 to 100 scale (0 no effect, 100 complete control), read-out: Kochia plant response rating
# How it was run: as §1
# [6] = tested on: giant foxtail (Setaria faberii); assay: Test A preemergence; assay type: in vivo; settings: Setaria faberi, pre-emergence, 240 h, 0 to 100 scale (0 no effect, 100 complete control), read-out: Foxtail, Giant plant response rating
# How it was run: as §1
# [7] = tested on: galium (catchweed bedstraw, Galium aparine); assay: Test A postemergence; assay type: in vivo; settings: Galium, post-emergence, 240 h, 0 to 100 scale, read-out: Plant response rating, Galium
# How it was run: as §1
# [8] = tested on: wheat (Triticum aestivum); assay: Test A postemergence; assay type: in vivo; settings: Triticum aestivum, post-emergence, 240 h, 0 to 100 scale, read-out: Plant response rating, Wheat
# How it was run: as §1
# [9] = tested on: pigweed (Amaranthus retroflexus); assay: Test A postemergence; assay type: in vivo; settings: Amaranthus retroflexus, post-emergence, 240 h, 0 to 100 scale, read-out: Plant response rating, Pigweed
# How it was run: as §1
# [10] = tested on: ragweed (common ragweed, Ambrosia elatior); assay: Test A postemergence; assay type: in vivo; settings: Ambrosia artemisiifolia, post-emergence, 240 h, 0 to 100 scale, read-out: Plant response rating, Ragweed
# How it was run: as §1
# [11] = tested on: Italian ryegrass (Lolium multiflorum); assay: Test A postemergence; assay type: in vivo; settings: Lolium multiflorum, post-emergence, 240 h, 0 to 100 scale, read-out: Plant response rating, Ryegrass, Italian
# How it was run: as §1
# corn (Zea mays) = assay: Test A postemergence; assay type: in vivo; settings: Zea mays, post-emergence, 240 h, 0 to 100 scale
# How it was run: as §1
# [12] = tested on: barnyardgrass (Echinochloa crus-galli); assay: Test A postemergence; assay type: in vivo; settings: Echinochloa crus-galli, post-emergence, 240 h, 0 to 100 scale, read-out: Plant response rating, Barnyardgrass
# How it was run: as §1
# kochia (Kochia scoparia) [13] = assay: Test A postemergence; assay type: in vivo; settings: Bassia scoparia, post-emergence, 240 h, 0 to 100 scale, read-out: Plant response rating, Kochia
# How it was run: as §1
# [14] = tested on: blackgrass (Alopecurus myosuroides); assay: Test A postemergence; assay type: in vivo; settings: Alopecurus myosuroides, post-emergence, 240 h, 0 to 100 scale, read-out: Plant response rating, Blackgrass
# How it was run: as §1
# [15] = tested on: giant foxtail (Setaria faberii); assay: Test A postemergence; assay type: in vivo; settings: Setaria faberi, post-emergence, 240 h, 0 to 100 scale, read-out: Plant response rating, Foxtail, Giant
# How it was run: as §1
# [16] = tested on: pigweed (Amaranthus retroflexus); assay: Test C postemergence; assay type: in vivo; settings: Amaranthus retroflexus, post-emergence, 336 h, Postemergence, scale 0 to 100, read-out: Plant response rating, Pigweed
# [17] = tested on: waterhemp (common waterhemp, Amaranthus rudis); assay: Test C postemergence; assay type: in vivo; settings: Amaranthus tuberculatus, post-emergence, Postemergence, scale 0 to 100, read-out: Plant response rating, Waterhemp
# [18] = tested on: ducksalad (Heteranthera limosa); assay: Test B flooded paddy; assay type: in vivo; settings: Heteranthera limosa, 336 h; 250 g ai/ha, Flood, 13 to 15 days, scale 0 (no effect) to 100 (complete control); read-out: Plant response rating, Ducksalad
# How it was run: (§2)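 Ratings were visual and made relative to untreated controls after 13 to 15 greenhouse days.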
# rice (Oryza sativa) = assay: Test B flooded paddy; assay type: in vivo; settings: Oryza sativa, 336 h; 250 g ai/ha, Flood, 13 to 15 days, scale 0 (no effect) to 100 (complete control); read-out: Plant response rating, Rice
# How it was run: as §2
# [19] = tested on: barnyardgrass (Echinochloa crus-galli); assay: Test B flooded paddy; assay type: in vivo; settings: Echinochloa crus-galli, 336 h; 250 g ai/ha, Flood, 13 to 15 days, scale 0 (no effect) to 100 (complete control); read-out: Plant response rating, Barnyardgrass
# How it was run: as §2
# [20] = tested on: sedge, umbrella (small-flower umbrella sedge, Cyperus difformis); assay: Test B flooded paddy; assay type: in vivo; settings: Cyperus difformis, 336 h; 250 g ai/ha, Flood, 13 to 15 days, scale 0 (no effect) to 100 (complete control); read-out: Plant response rating, Sedge, Umbrella
# How it was run: as §2
structure (smiles),measurement,setting,value
"Fc1cnc(Oc2c(F)ccc(F)c2Oc2ncc(F)cn2)nc1 [Compound 29, 2,2′-[(3,6-difluoro-1,2-phenylene)bis(oxy)]bis[5-fluoropyrimidine]]",pest or weed control at 31 g/ha,[1]; 31 g ai/ha,100%
same,pest or weed control at 125 g/ha,[1]; 125 g ai/ha,100%
same,pest or weed control at 31 g/ha,[2]; 31 g ai/ha,0%
same,pest or weed control at 125 g/ha,[2]; 125 g ai/ha,90%
same,pest or weed control at 31 g/ha,[3]; 31 g ai/ha,0%
same,pest or weed control at 125 g/ha,[3]; 125 g ai/ha,30%
same,pest or weed control at 31 g/ha,"[4]; 31 g ai/ha, 0 to 100 scale (0 no effect, 100 complete control), read-out: Barnyardgrass plant response rating",10%
same,pest or weed control at 125 g/ha,"[4]; 125 g ai/ha, 0 to 100 scale, read-out: Plant response rating, Barnyardgrass",100%
same,pest or weed control at 31 g/ha,kochia (Kochia scoparia) [5]; 31 g ai/ha,80%
same,pest or weed control at 125 g/ha,kochia (Kochia scoparia) [5]; 125 g ai/ha,100%
same,pest or weed control at 31 g/ha,[6]; 31 g ai/ha,80%
same,pest or weed control at 125 g/ha,[6]; 125 g ai/ha,100%
same,melting point,,158 to 161 °C
same,pest or weed control at 31 g/ha,[7]; 31 g ai/ha,100%
same,pest or weed control at 125 g/ha,[7]; 125 g ai/ha,100%
same,plant injury at 31 g/ha,[8]; 31 g ai/ha,30%
same,plant injury at 125 g/ha,[8]; 125 g ai/ha,80%
same,pest or weed control at 31 g/ha,[9]; 31 g ai/ha,90%
same,pest or weed control at 125 g/ha,[9]; 125 g ai/ha,90%
same,pest or weed control at 31 g/ha,[10]; 31 g ai/ha,40%
same,pest or weed control at 125 g/ha,[10]; 125 g ai/ha,60%
same,pest or weed control at 31 g/ha,[11]; 31 g ai/ha,20%
same,pest or weed control at 125 g/ha,[11]; 125 g ai/ha,20%
same,"Corn plant response rating (crop injury, 0 = no effect, 100 = complete kill) at 31 g/ha",corn (Zea mays); 31 g ai/ha,20%
same,"Corn plant response rating (crop injury, 0 = no effect, 100 = complete kill) at 125 g/ha",corn (Zea mays); 125 g ai/ha,90%
same,pest or weed control at 31 g/ha,[12]; 31 g ai/ha,20%
same,pest or weed control at 125 g/ha,[12]; 125 g ai/ha,80%
same,pest or weed control at 31 g/ha,kochia (Kochia scoparia) [13]; 31 g ai/ha,80%
same,pest or weed control at 125 g/ha,kochia (Kochia scoparia) [13]; 125 g ai/ha,100%
same,pest or weed control at 31 g/ha,[14]; 31 g ai/ha,80%
same,pest or weed control at 125 g/ha,[14]; 125 g ai/ha,90%
same,pest or weed control at 31 g/ha,[15]; 31 g ai/ha,30%
same,pest or weed control at 125 g/ha,[15]; 125 g ai/ha,60%
same,pest or weed control at 31 g/ha,[16]; 31 g ai/ha,90%
same,pest or weed control at 62 g/ha,[16]; 62 g ai/ha,95%
same,pest or weed control at 125 g/ha,[16]; 125 g ai/ha,90%
same,pest or weed control at 31 g/ha,[17]; 31 g ai/ha,85%
same,pest or weed control at 62 g/ha,[17]; 62 g ai/ha,90%
same,pest or weed control at 125 g/ha,[17]; 125 g ai/ha,95%
same,pest or weed control at 250 g/ha,[18],90%
same,plant injury at 250 g/ha,rice (Oryza sativa),85%
same,pest or weed control at 250 g/ha,[19],90%
same,pest or weed control at 250 g/ha,[20],75%
